Reference: patent publication US11878992B2, “Crystallization of steviol glycosides” (DSM IP Assets B.V., priority 2016, dated 2024)

Assays:
[1] = suitable for use in carbonated beverages and many other foods; cited from earlier work
Type II diabetics = settings: studies suggest; cited from earlier work
[2] = tested on: mildly hypertensive patients; settings: studies suggest; cited from earlier work
[3] = relative to sucrose; cited from earlier work
[4] = solubility in washing liquid (95% ethanol); format: physicochemical; settings: in 95% ethanol (washing liquid)
Procedure: The suspension of 2.5 g crystals in 100 ml water was heated to 75° C. for 10 minutes to dissolve the crystals. The solution was cooled to 20° C. at 10° C./h and incubated at this temperature overnight. The crystals formed were filtered by vacuum and washed with two cake volumes of 95% ethanol
The choice of washing liquid was because of the low rebaudioside M solubility in it. The crystals were dried at 60° C. under vacuum overnight. […] The crystals contained >95% Reb-M as determined by LC-UV and the level of all KAG was below the limit of detection of LC-MS.

[5] = spontaneous crystallization from nanofiltration retentate; format: physicochemical; settings: aqueous nanofiltration retentate of fermentation broth
Procedure: The fermentation broth after laboratory scale fermentations was processed as follows: • centrifugation 30 min at 4000×g; • pH in the supernatant was adjusted to 3.5 and supernatant was heated 30 min at 70° C.; • the heated supernatant was clarified by centrifugation; • the clarified supernatant was ultrafiltrated through a membrane with 10 kDa cut-off; and • the permeate after ultrafiltration was nanofiltrated using a membrane with 150-300 Da cut-off.
Finally, 14.5 g of dried crystals were isolated out of 0.871 kg NF retentate.

C=C1C[C@@]23CC[C@H]4[C@@](C)(CCC[C@@]4(C)C(=O)O[C@@H]4O[C@H](CO)[C@@H](O)[C@H](O)[C@H]4O)[C@@H]2CC[C@]1(O[C@@H]1O[C@H](CO)[C@@H](O)[C@H](O)[C@H]1O[C@@H]1O[C@H](CO)[C@@H](O)[C@H](O)[C@H]1O)C3 [Stevioside]
heat and pH stability [1]: heat and pH stable
effect on blood glucose levels (Type II diabetics): can reduce blood glucose levels
effect on blood pressure [2]: can reduce blood pressure

C=C1C[C@@]23CC[C@H]4[C@@](C)(CCC[C@@]4(C)C(=O)O[C@@H]4O[C@H](CO)[C@@H](O)[C@H](O)[C@H]4O)[C@@H]2CC[C@]1(O[C@@H]1O[C@H](CO)[C@@H](O)[C@H](O[C@@H]2O[C@H](CO)[C@@H](O)[C@H](O)[C@H]2O)[C@H]1O[C@@H]1O[C@H](CO)[C@@H](O)[C@H](O)[C@H]1O)C3 [rebaudioside A]
heat and pH stability [1]: heat and pH stable

C=C1C[C@@]23CC[C@H]4[C@@](C)(CCC[C@@]4(C)C(=O)O[C@@H]4O[C@H](CO)[C@@H](O)[C@H](O)[C@H]4O[C@@H]4O[C@H](CO)[C@@H](O)[C@H](O)[C@H]4O)[C@@H]2CC[C@]1(O[C@@H]1O[C@H](CO)[C@@H](O)[C@H](O[C@@H]2O[C@H](CO)[C@@H](O)[C@H](O)[C@H]2O)[C@H]1O[C@@H]1O[C@H](CO)[C@@H](O)[C@H](O)[C@H]1O)C3 [rebaudioside D]
times sweeter than sucrose [3]: about 200 times

C=C1C[C@@]23CC[C@H]4[C@@](C)(CCC[C@@]4(C)C(=O)O[C@@H]4O[C@H](CO)[C@@H](O)[C@H](O[C@@H]5O[C@H](CO)[C@@H](O)[C@H](O)[C@H]5O)[C@H]4O[C@@H]4O[C@H](CO)[C@@H](O)[C@H](O)[C@H]4O)[C@@H]2CC[C@]1(O[C@@H]1O[C@H](CO)[C@@H](O)[C@H](O[C@@H]2O[C@H](CO)[C@@H](O)[C@H](O)[C@H]2O)[C@H]1O[C@@H]1O[C@H](CO)[C@@H](O)[C@H](O)[C@H]1O)C3 [rebaudioside M]
solubility [4]: low
concentration in the retentate of nanofiltration at which crystallization begins spontaneously [5]: exceeded 30 g/I
